Assay results from US10760110B2, “Antibiotic testing and screening system” (priority 2017, dated 2020).
Read-outs that look alike come from different tables or passages of the source.

Test system: K. pneumoniae NVT1001 strains with ESBL or AmpC β-lactamase plasmids
Experiment: Etest MIC of β-lactams, OmpK35/36 loss, ΔramR and/or extended-spectrum β-lactamase and AmpC β-lactamase (Table 8)
Type: cell-based, Klebsiella pneumoniae
Details: Klebsiella pneumoniae
Description: DNA fragments of the resistance genes along with their flanking regions were amplified from clinical plasmids via PCR with specific primer pairs. The resulting PCR fragments were digested and then cloned into the plasmid pACYC177 or pACYC184. The resulting plasmids were then transformed into K. pneumoniae strain NVT1001 via electroporation. The recombinant bacteria were plated onto LB agar plates containing kanamycin (50 mg/L) or chloramphenicol (50 mg/L), and the presence of the cloned gene was confirmed via PCR and DNA sequencing.
The MICs of antibiotics were determined using the Etest (Biodisk AB, Sweden) according to the manufacturer's instructions. The MICs from the Etest, which fall between standard two-fold dilutions, were rounded up to the next highest two-fold value. The MICs of ceftazidime and cefotaxime against K. pneumoniae NVT1001 harbouring the pACYC177 plasmid with blaOXA-48 were further determined using a broth microdilution test according to the recommendations of the CLSI,^25 and the results were interpreted according to the breakpoints established by the CLSI in 2017.^25 Meanwhile, due to the lack of CLSI breakpoints in 2016 and 2017, the results for cephalothin were interpreted according to the breakpoints established by the CLSI in 2015,^26 and the results for moxifloxacin were interpreted according to the breakpoints established by the EUCAST in 2017.^27

[1] = CMY-2 on pACYC177, WT (NVT1001), read-out: MIC
[2] = CMY-2 on pACYC177, Δ35 (ΔompK35 mutant)
[3] = CMY-2 on pACYC177, Δ35/36 (ΔompK35/36 mutant)
[4] = CMY-2 on pACYC177, Δ36 (ΔompK36 mutant)
[5] = CMY-2 on pACYC177, ΔramR mutant
[6] = CMY-2 on pACYC177, ΔramRΔ35 (ΔramRΔompK35 mutant)
[7] = CMY-2 on pACYC177, ΔramRΔ35/36 (ΔramRΔompK35/36 mutant)
[8] = CMY-2 on pACYC177, ΔramRΔ36 (ΔramRΔompK36 mutant)
[9] = CTX-M-14 on pACYC177, WT (NVT1001), read-out: MIC
[10] = CTX-M-14 on pACYC177, Δ35 (ΔompK35 mutant)
[11] = CTX-M-14 on pACYC177, Δ35/36 (ΔompK35/36 mutant)
[12] = CTX-M-14 on pACYC177, Δ36 (ΔompK36 mutant)
[13] = CTX-M-14 on pACYC177, ΔramR mutant
[14] = CTX-M-14 on pACYC177, ΔramRΔ35 (ΔramRΔompK35 mutant)
[15] = CTX-M-14 on pACYC177, ΔramRΔ35/36 (ΔramRΔompK35/36 mutant)
[16] = CTX-M-14 on pACYC177, ΔramRΔ36 (ΔramRΔompK36 mutant)
[17] = CTX-M-15 on pACYC177, WT (NVT1001), read-out: MIC
[18] = CTX-M-15 on pACYC177, Δ35 (ΔompK35 mutant)
[19] = CTX-M-15 on pACYC177, Δ35/36 (ΔompK35/36 mutant)
[20] = CTX-M-15 on pACYC177, Δ36 (ΔompK36 mutant)
[21] = CTX-M-15 on pACYC177, ΔramR mutant
[22] = CTX-M-15 on pACYC177, ΔramRΔ35 (ΔramRΔompK35 mutant)
[23] = CTX-M-15 on pACYC177, ΔramRΔ35/36 (ΔramRΔompK35/36 mutant)
[24] = CTX-M-15 on pACYC177, ΔramRΔ36 (ΔramRΔompK36 mutant)
[25] = DHA-1-AmpR on pACYC177, WT (NVT1001), read-out: MIC
[26] = DHA-1-AmpR on pACYC177, Δ35 (ΔompK35 mutant)
[27] = DHA-1-AmpR on pACYC177, Δ35/36 (ΔompK35/36 mutant)
[28] = DHA-1-AmpR on pACYC177, Δ36 (ΔompK36 mutant)
[29] = DHA-1-AmpR on pACYC177, ΔramR mutant
[30] = DHA-1-AmpR on pACYC177, ΔramRΔ35 (ΔramRΔompK35 mutant)
[31] = DHA-1-AmpR on pACYC177, ΔramRΔ35/36 (ΔramRΔompK35/36 mutant)
[32] = DHA-1-AmpR on pACYC177, ΔramRΔ36 (ΔramRΔompK36 mutant)
[33] = SHV-12 on pACYC177, WT (NVT1001), read-out: MIC
[34] = SHV-12 on pACYC177, Δ35 (ΔompK35 mutant)
[35] = SHV-12 on pACYC177, Δ35/36 (ΔompK35/36 mutant)
[36] = SHV-12 on pACYC177, Δ36 (ΔompK36 mutant)
[37] = SHV-12 on pACYC177, ΔramR mutant
[38] = SHV-12 on pACYC177, ΔramRΔ35 (ΔramRΔompK35 mutant)
[39] = SHV-12 on pACYC177, ΔramRΔ35/36 (ΔramRΔompK35/36 mutant)
[40] = SHV-12 on pACYC177, ΔramRΔ36 (ΔramRΔompK36 mutant)
[41] = no supplemental plasmid, WT (NVT1001), read-out: MIC
[42] = no supplemental plasmid, Δ35 (ΔompK35 mutant)
[43] = no supplemental plasmid, Δ35/36 (ΔompK35/36 mutant)
[44] = no supplemental plasmid, Δ36 (ΔompK36 mutant)
[45] = no supplemental plasmid, ΔramR mutant
[46] = no supplemental plasmid, ΔramRΔ35 (ΔramRΔompK35 mutant)
[47] = no supplemental plasmid, ΔramRΔ35/36 (ΔramRΔompK35/36 mutant)
[48] = no supplemental plasmid, ΔramRΔ36 (ΔramRΔompK36 mutant)

Compound: CC(C)(O/N=C(\C(=O)N[C@@H]1C(=O)N2C(C(=O)[O-])=C(C[n+]3ccccc3)CS[C@H]12)c1csc(N)n1)C(=O)O [Ceftazidime]
- MIC [1]: > 256 µg/mL
- MIC [2]: > 256 µg/mL
- MIC [3]: > 256 µg/mL
- MIC [4]: > 256 µg/mL
- MIC [5]: > 256 µg/mL
- MIC [6]: > 256 µg/mL
- MIC [7]: > 256 µg/mL
- MIC [8]: > 256 µg/mL
- MIC [9]: 1 µg/mL
- MIC [10]: 4 µg/mL
- MIC [11]: 8 µg/mL
- MIC [12]: 2 µg/mL
- MIC [13]: 8 µg/mL
- MIC [14]: 8 µg/mL
- MIC [15]: 16 µg/mL
- MIC [16]: 8 µg/mL
- MIC [17]: 64 µg/mL
- MIC [18]: > 256 µg/mL
- MIC [19]: > 256 µg/mL
- MIC [20]: 64 µg/mL
- MIC [21]: 256 µg/mL
- MIC [22]: > 256 µg/mL
- MIC [23]: > 256 µg/mL
- MIC [24]: > 256 µg/mL
- MIC [25]: 16 µg/mL
- MIC [26]: 128 µg/mL
- MIC [27]: > 256 µg/mL
- MIC [28]: 32 µg/mL
- MIC [29]: 64 µg/mL
- MIC [30]: 64 µg/mL
- MIC [31]: 128 µg/mL
- MIC [32]: 64 µg/mL
- MIC [33]: 64 µg/mL
- MIC [34]: > 256 µg/mL
- MIC [35]: > 256 µg/mL
- MIC [36]: 128 µg/mL
- MIC [37]: > 256 µg/mL
- MIC [38]: > 256 µg/mL
- MIC [39]: > 256 µg/mL
- MIC [40]: > 256 µg/mL
- MIC [41]: 0.25 µg/mL
- MIC [42]: 0.5 µg/mL
- MIC [43]: 1 µg/mL
- MIC [44]: 0.5 µg/mL
- MIC [45]: 2 µg/mL
- MIC [46]: 2 µg/mL
- MIC [47]: 2 µg/mL
- MIC [48]: 2 µg/mL

Compound: CO/N=C(\C(=O)N[C@@H]1C(=O)N2C(C(=O)O)=C(COC(N)=O)CS[C@H]12)c1ccco1 [Cefuroxime]
- MIC [1]: 256 µg/mL
- MIC [2]: 256 µg/mL
- MIC [3]: > 256 µg/mL
- MIC [4]: > 256 µg/mL
- MIC [5]: > 256 µg/mL
- MIC [6]: > 256 µg/mL
- MIC [7]: > 256 µg/mL
- MIC [8]: > 256 µg/mL
- MIC [9]: > 256 µg/mL
- MIC [10]: > 256 µg/mL
- MIC [11]: > 256 µg/mL
- MIC [12]: > 256 µg/mL
- MIC [13]: > 256 µg/mL
- MIC [14]: > 256 µg/mL
- MIC [15]: > 256 µg/mL
- MIC [16]: > 256 µg/mL
- MIC [17]: > 256 µg/mL
- MIC [18]: > 256 µg/mL
- MIC [19]: > 256 µg/mL
- MIC [20]: > 256 µg/mL
- MIC [21]: > 256 µg/mL
- MIC [22]: > 256 µg/mL
- MIC [23]: > 256 µg/mL
- MIC [24]: > 256 µg/mL
- MIC [25]: > 256 µg/mL
- MIC [26]: > 256 µg/mL
- MIC [27]: > 256 µg/mL
- MIC [28]: > 256 µg/mL
- MIC [29]: > 256 µg/mL
- MIC [30]: > 256 µg/mL
- MIC [31]: > 256 µg/mL
- MIC [32]: > 256 µg/mL
- MIC [33]: 64 µg/mL
- MIC [34]: 64 µg/mL
- MIC [35]: > 256 µg/mL
- MIC [36]: 128 µg/mL
- MIC [37]: 256 µg/mL
- MIC [38]: 128 µg/mL
- MIC [39]: > 256 µg/mL
- MIC [40]: > 256 µg/mL
- MIC [41]: 4 µg/mL
- MIC [42]: 8 µg/mL
- MIC [43]: 32 µg/mL
- MIC [44]: 16 µg/mL
- MIC [45]: 32 µg/mL
- MIC [46]: 64 µg/mL
- MIC [47]: 128 µg/mL
- MIC [48]: > 256 µg/mL
